From patent US9200017B2, “Multimodal imaging of fibrin” (The General Hospital Corporation, priority 2009, dated 2015)

Assays:
Thrombus [1] = test: MR-PET imaging in a rabbit model of occlusive arterial thrombus; format: in vivo; conditions: i.v., MR angiogram with gadofosveset
Method: The occlusive thrombus model was similar to the one described above. Briefly, a male New Zealand white rabbit (2.5 kg) was sedated with a mixture of ketamine and xylazine and anaesthetized with isoflurane (1-2% in 70% N2O and 30% O2) and body temperature was kept at 37.5° C. A day old autologous blood clot was injected into the right internal carotid artery (ICA). The femoral vein was cannulated for intravenous delivery of the imaging agents. Simultaneous PET and MR were acquired on a clinical 3T MRI-BrainPET scanner using a home-built receive surface coil and a CP transmit coil. After baseline MR scans were acquired, the compound 21 was administered at a dose of […]. The blood pool MR contrast agent gadofosveset was injected at a dose of 0.1 mmol Gd/kg to acquire an angiographic image.

Thrombus [2] = target: T1, Thrombus (Rattus norvegicus, UniProt P02680+P06399+P14480); format: in vivo; conditions: ex vivo, 2 h post-injection
T1 construct: thrombin cleaves fibrinopeptides on fibrinogen resulting in an end-to-end polymerization to give the polymer fibrin; A day old autologous blood clot was injected into the right internal carotid artery; from tissue; host or cells: autologous blood clot in the right internal carotid artery of Wistar rats
T1 sequence (P06399 37-550 isoform P06399-2 limits assumed): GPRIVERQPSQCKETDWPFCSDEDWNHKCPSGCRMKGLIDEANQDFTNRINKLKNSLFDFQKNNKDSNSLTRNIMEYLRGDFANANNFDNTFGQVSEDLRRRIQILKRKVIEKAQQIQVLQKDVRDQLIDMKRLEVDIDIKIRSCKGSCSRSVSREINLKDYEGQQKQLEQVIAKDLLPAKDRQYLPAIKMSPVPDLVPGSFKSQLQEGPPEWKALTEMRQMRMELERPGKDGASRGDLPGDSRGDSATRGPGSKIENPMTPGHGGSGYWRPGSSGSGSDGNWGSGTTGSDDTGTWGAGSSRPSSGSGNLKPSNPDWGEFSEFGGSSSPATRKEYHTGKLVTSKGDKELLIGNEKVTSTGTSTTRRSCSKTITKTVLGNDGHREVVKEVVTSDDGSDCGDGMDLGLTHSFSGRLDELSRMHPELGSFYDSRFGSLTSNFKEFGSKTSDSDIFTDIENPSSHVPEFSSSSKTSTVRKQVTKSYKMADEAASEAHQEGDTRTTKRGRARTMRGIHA
T1 sequence (P14480 33-479 limits assumed): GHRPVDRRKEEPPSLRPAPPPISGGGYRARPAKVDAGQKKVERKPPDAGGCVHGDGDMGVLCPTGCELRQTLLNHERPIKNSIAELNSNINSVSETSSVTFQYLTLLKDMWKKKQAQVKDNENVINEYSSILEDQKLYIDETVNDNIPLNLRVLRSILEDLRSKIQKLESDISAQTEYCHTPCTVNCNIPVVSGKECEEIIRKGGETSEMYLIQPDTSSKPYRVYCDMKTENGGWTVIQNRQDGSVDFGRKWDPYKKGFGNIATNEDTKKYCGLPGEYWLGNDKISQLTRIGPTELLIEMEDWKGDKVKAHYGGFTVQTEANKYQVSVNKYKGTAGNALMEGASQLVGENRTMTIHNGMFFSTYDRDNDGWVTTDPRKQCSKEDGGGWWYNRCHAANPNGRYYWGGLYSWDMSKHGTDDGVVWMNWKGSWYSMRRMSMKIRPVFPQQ
T1 sequence (P02680 26-437 isoform P02680-2 limits assumed): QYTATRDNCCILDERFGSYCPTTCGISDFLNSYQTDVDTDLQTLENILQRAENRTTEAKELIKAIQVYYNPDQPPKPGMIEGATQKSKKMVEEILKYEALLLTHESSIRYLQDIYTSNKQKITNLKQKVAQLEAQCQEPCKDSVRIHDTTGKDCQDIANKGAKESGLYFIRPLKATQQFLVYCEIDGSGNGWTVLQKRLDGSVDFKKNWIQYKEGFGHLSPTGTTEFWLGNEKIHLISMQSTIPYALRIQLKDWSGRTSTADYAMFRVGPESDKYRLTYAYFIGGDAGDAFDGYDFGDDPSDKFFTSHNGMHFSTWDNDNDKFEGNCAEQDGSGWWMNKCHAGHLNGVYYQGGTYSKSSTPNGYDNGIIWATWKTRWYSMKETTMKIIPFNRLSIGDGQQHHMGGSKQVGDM
Method: All animal studies were approved by the Subcommittee on Research Animal Care at Massachusetts General Hospital. The occlusive thrombus model was described previously (Zhang R L, Chopp M, Zhang Z G, Jiang Q, and Ewing J R., Brain Res. 1997 766(1-2):83-92). Briefly, male Wistar rats (350-400 g, n=8; Charles River Laboratories, Wilmington, Mass.) were anaesthetized with isoflurane (1-2% in 70% N2O and 30% O2) and body temperature was kept at 37.5° C. A day old autologous blood clot was injected into the right internal carotid artery (ICA) at the level of the middle cerebral artery (MCA). The femoral vein was cannulated for intravenous delivery of the contrast agent. […]
The ipsilateral (containing the thrombus) and contralateral ICA and MCA, cerebral hemispheres, blood, urine, intraabdominal organs, rectus femoris muscle and femur bone were collected from all the animals, weighed and radioactivity measured on a gamma counter. The percent of the injected dose per gram of tissue (% ID/g) was calculated by dividing the counts of ^64Cu/g of tissue by the total counts of the injected dose, based on an aliquot of the injected dose, with correction for radioactive decay. Tissues were later homogenized in nitric acid and analyzed for Gd concentration by inductively coupled plasma-mass spectrometry (ICP-MS).

Gd3-EP-2104R-Cu [Compound 21]
PET signal at occluded right internal carotid artery (Thrombus [1]): hyperintense PET signal in the right internal carotid (ICA) | Concentration of 64Cu in thrombus relative to contralateral vessel, blood plasma, brain, or muscle (Thrombus [2]; p<0.005): at least 4 fold | Gd concentration in thrombus relative to contralateral vessel, blood plasma, brain, or muscle (Thrombus [2]; ICP-MS, p<0.0001): over 6 fold
